Source: US20050004000A1, “Oral absorbed drugs” (priority 2001, published 2005)
Like-named read-outs stand apart in the source and are kept apart here.

Key:
[1] = rats; Dox 10 μg/g, Fms-Dox 15 μg/g I.P.
Experimental: (§1) The experiment was carried out with a single mice or rat per compound (per metabolic cage) and it was repeated 7 times with rats and twice with mice using the protocol below. The fluorescent feature of doxorubicin enables the observation of its presence in the urine following different modes of administration.
Urine was collected several times after administration and the fluorescence emission was measured by a fluorometer. The urine collected from the untreated groups was used as a blank.
Urine was collected at 1.25, 2.5, 4 and 6 hours after administration and fluorescence intensity was measured in a fluorometer (SPECTRAmax and GEMINI of Molecular Devices Sunnyvale Fluorometer, CA, USA). Since doxorubicin is a fluorescent material, when it absorbs light energy at a wavelength of 488 nm (excitation), it undergoes an electronic state change and instantaneously emits light at 595 nm (emission). The Relative Fluorescence Units (RFU) shown in FIG. 1 indicate the peaks of light emitted at 595 nm resulting from the absorption of Dox at 488 nm.

[2] = Experimental: as §1
The experiments were repeated with mice.

F10.9 melanoma cell line = test: Inhibition of proliferation of cancer cells in vitro, crystal violet staining; type: cell-based; conditions: F10.9 melanoma cells, 96 hours, crystal violet staining (FIG. 2); read-out: IC50 (the concentration at which cell growth is inhibited by 50%)
Experimental: (§2) The efficacy of native Dox and FMS-Dox on the inhibition of proliferation of cancer cells was tested in vitro with F10.9 melanoma cell line. On day (−1) cells, were seeded in a 24-well plate (5×10^3 cells/ml/well). On day (0), cells were incubated with Dox and FMS-Dox at logarithmic dilutions from 100 μM to 0.001 μM. Survival of cells at 96 hours was determined, using the crystal violet staining method. Optical density (OD) was measured at 620 nm in an ELISA reader. The OD reading was correlated to % viable cells. When the cells were untreated the absorbance was at a maximum. IC50 (the concentration at which cell growth is inhibited by 50%) was determined. The results in FIG. 2 show IC50 values of 0.03 μM and 0.09 μM for native Dox and FMS-Dox, respectively. […] The was confirmed by HPLC analysis whereby the compound found in the growing cell medium after 96 hr corresponded to native doxorubicin.

[3] = test system: luteinizing hormone (LH) in circulating blood; test: Effect of GnRH analogs on LH levels in blood of rats (RIA); type: in vivo, rat; design: LH 180 min: unit not given here
Experimental: The experiment was carried out with 55 female Wistar 8-week old rates, equally distributed into one of the eleven test groups as detailed in the following Table 3:
The compounds were administered either orally (PO) or intraperitoneally (IP) in a molar concentration of 0.4 nmol/rat (equivalent to 0.5 μg/rat of D-Lys^6-GnRH and to 0.6 μg/rat of Fms- or Fmoc-D-Lys^6-GnRH), or of 40 nmol/rat (equivalent in 50 μg/rat of D-Lys^6-GnRH and to 60 μg/rat of Fms- or Fmoc-D-Lys^6-GnRH), in 0.5 ml PBS. Ninety and 180 minutes after administration of the appropriate treatment, blood samples were collected (1 ml), the serum was separated, and the detection of LH levels was carried out by radioimmunoassay (RIA) as previously described (Rahimipour, S., et Al. J. Med. Chem. 2001, 44, 3645-3652).

[4] = test system: acetylcholine-induced abdominal constriction; test: Acetylcholine-induced abdominal constriction in mice (antinociceptive activity); type: in vivo; conditions: for activity after SC or PO administration: Fmoc-Ala 25 mg/kg; for activity after SC or PO administration / inhibition of acetylcholine-induced abdominal constriction, dose response (FIG. 3): Met-enkephalin 50 mg/kg; for antinociceptive activity in the mouse: comparable doses; for activity after SC or PO administration / antinociceptive activity in the mouse: SC or PO; for inhibition of acetylcholine-induced abdominal constriction, dose response (FIG. 3): 30 minutes after SC, Fmoc-Met-enkephalin 50 and 25 mg/kg, p<0.05
Excerpt: The method used in the experiments herein for evaluating the antinociceptive properties of Fmoc-Met-enkephalin is a standard method for evaluating compounds having analgesic activity such as non-steroidal anti-inflammatory agents, opioids, and other analgesics, and consists in administering acetylcholine I.P. to mice, treating the mice with the test compound and evaluating the inhibition of abdominal constriction induced by the acetylcholine.
Thus, 120 healthy CD-1, Swiss derived, albino male mice (obtained from Charles River Breeding Labs, Wilmington, Mass.) were weighed, examined for health and equally distributed into one of the 12 test groups shown in Table 1.
SC administration was carried out with a standard syrine and needle and given in a volume of 10 ml per kg. Oral administration was performed using a standard curved oval gavage needle and given in a volume of 10 ml per kg. Thirty minutes after administration of the appropriate treatment, acetylcholine (5.5 mg/kg) was injected I.P. The mice were then placed in large plastic boxes and observed for the occurrence of a single abdominal constriction (defined as a wave of construction and elongation passing caudally along the abdominal wall, accompanied by a twisting of the trunk and followed by extension of the hind limbs). […] Acetylcholine-induced abdominal constriction was repeated again at approximately 120 minutes after test compound administration.
Observations included gross evaluation of the skin and fur, eyes and mucous membranes, respiratory, circulatory, autonomic and central nervous system, somatomotor activity and behavioral patterns. Particular attention was directed to observation of tremors, convulsions, salivation, diarrhea, sleep and coma. A non-parametric analysis of quantal data (Fisher exact test) was used to determine statistical significance of results.

Candida albicans = conditions: 20 IU; Agar-RPMI plates confluent with Candida albicans, 48 hr at 30° C.; cited from earlier work
[5] = HPLC analysis of growing cell medium (cleavage of Fms-Dox); type: in vitro ADME; conditions: growing cell medium after 96 hr
Experimental: as §2

[6] = test system: Escherichia coli (E. coli strain N-4156-W.T); test: Antibacterial potency: E. coli replication, absorbance at 600 nm; type: cell-based; conditions: 37° C., L.B. medium, O.D. 600 nm
Experimental: A suspension of Escherichia coli (E. coli strain N-4156-W.T, 1% V/V in L.B. medium) is divided into plastic tubes (0.5 ml per tube) and incubated in a shaking water bath at 37° C., in either the absence or the presence of increasing concentrations of gentamicin (0.02-50 μM) and increasing concentrations of (Fms)3-gentamicin (0.02-50 μM). E. coli replication is evaluated by measuring the absorbance at 600 nm. Incubation is terminated when O.D600 nm in the tubes containing no gentamicin reaches a value of 0.6±0.1. Under our assay conditions, native gentamicin inhibited half-maximally E. coli replication at a concentration of 0.22±0.02 μM (0.1 μg/ml).

[7] = 0.4 nmol/rat (0.5 or 0.6 μg/rat) IP
[8] = 0.4 nmol/rat (0.5 or 0.6 μg/rat) PO
[9] = 40 nmol/rat (50 or 60 μg/rat) PO

COc1cccc2c1C(=O)c1c(O)c3c(c(O)c1C2=O)C[C@@](O)(C(=O)CO)C[C@@H]3O[C@H]1C[C@H](N)[C@H](O)[C@H](C)O1 [native Dox, Doxorubicin]
absorption following I.P. administration (urine fluorescence) [1]: absorbed | absorption following I.P. administration (urine fluorescence) ([2]; mice, I.P.): absorbed | oral absorption (urine fluorescence) ([2]; mouse, in vivo, po): orally nonabsorbed | IC50 (F10.9 melanoma cell line): 30 nM

5-oxo-Pro-His-Trp-Ser-Tyr-(Fms)D-Lys-Leu-Arg-Pro-Gly-NH2 [Fms-D-Lys^6-GnRH]
LH 90 min [3, 7]: 80 ng/mL | LH 180 min [3, 7]: 25 | LH 90 min [3, 8]: 0.4 ng/mL | LH 180 min [3, 8]: 0 | LH 90 min [3, 9]: 80 ng/mL | LH 180 min [3, 9]: 35 | activity when administered IP [3]: active | effect of oral administration on LH levels in the blood circulation ([3]; oral, 90 and 180 min after administration): elevation of the LH levels

5-oxo-Pro-His-Trp-Ser-Tyr-(Fmoc)D-Lys-Leu-Arg-Pro-Gly-NH2 [Fmoc-D-Lys^6-GnRH]
LH 90 min [3, 7]: 50 ng/mL | LH 180 min [3, 7]: 17 | LH 90 min [3, 8]: 0 ng/mL | LH 180 min [3, 8]: 0 | LH 90 min [3, 9]: 0 ng/mL | LH 180 min [3, 9]: 0 | activity when administered IP [3]: active

C[C@H](NC(=O)OCC1c2ccccc2-c2ccccc21)C(=O)O [Fmoc-Ala, reference compound]
# mice abdominal construction ([4]; 25 mg/kg PO, 30 minutes): 10/10 | # mice abdominal construction ([4]; 25 mg/kg PO, 120 minutes): 8/10 | % inhibition ([4]; 25 mg/kg PO, 120 minutes): 20% | # mice abdominal construction ([4]; 25 mg/kg SC, 30 minutes): 10/10 | # mice abdominal construction ([4]; 25 mg/kg SC, 120 minutes): 10/10 | activity after SC or PO administration [4]: not active | antinociceptive activity in the mouse [4]: neither Met-enkephalin nor Fmoc-Ala is active

C[C@@H]1[C@H](O)[C@@H](C)/C=C/C=C/C=C/C=C/C=C/C=C/C=C/[C@H](O[C@@H]2O[C@H](C)[C@@H](O)[C@H](N)[C@@H]2O)C[C@@H]2O[C@](O)(C[C@@H](O)C[C@@H](O)[C@H](O)CC[C@@H](O)C[C@@H](O)CC(=O)O[C@H]1C)C[C@H](O)[C@H]2C(=O)O [native Amphotericin B, Amphotericin B]
clear zone diameter (Candida albicans): 1.5 cm

(X1)Tyr-Gly-Gly-Phe-Met [Fmoc-Met-Enk]
# mice abdominal construction ([4]; 6.25 mg/kg SC, 30 minutes): 9/10 | % inhibition ([4]; 6.25 mg/kg SC, 30 minutes): 10% | # mice abdominal construction ([4]; 6.25 mg/kg SC, 120 minutes): 8/10 | % inhibition ([4]; 6.25 mg/kg SC, 120 minutes): 20% | # mice abdominal construction ([4]; 12.5 mg/kg PO, 30 minutes): 6/10 | % inhibition ([4]; 12.5 mg/kg PO, 30 minutes): 40% | # mice abdominal construction ([4]; 12.5 mg/kg PO, 120 minutes): 10/10 | # mice abdominal construction ([4]; 12.5 mg/kg SC, 30 minutes): 7/10 | % inhibition ([4]; 12.5 mg/kg SC, 30 minutes): 30% | # mice abdominal construction ([4]; 12.5 mg/kg SC, 120 minutes): 8/10 | % inhibition ([4]; 12.5 mg/kg SC, 120 minutes): 20% | # mice abdominal construction ([4]; 25 mg/kg PO, 30 minutes): 6/10 | % inhibition ([4]; 25 mg/kg PO, 30 minutes): 40% | # mice abdominal construction ([4]; 25 mg/kg PO, 120 minutes): 10/10 | # mice abdominal construction ([4]; 25 mg/kg SC, 30 minutes): 6/10 | % inhibition ([4]; 25 mg/kg SC, 30 minutes): 40% | # mice abdominal construction ([4]; 25 mg/kg SC, 120 minutes): 6/10 | % inhibition ([4]; 25 mg/kg SC, 120 minutes): 40% | activity at 120 minutes after drug administration ([4]; 25 mg/kg SC, 120 minutes): active | # mice abdominal construction ([4]; 50 mg/kg PO, 30 minutes): 8/10 | % inhibition ([4]; 50 mg/kg PO, 30 minutes): 20% | # mice abdominal construction ([4]; 50 mg/kg PO, 120 minutes): 6/10 | % inhibition ([4]; 50 mg/kg PO, 120 minutes): 40% | # mice abdominal construction ([4]; 50 mg/kg SC, 30 minutes): 5/10 | % inhibition ([4]; 50 mg/kg SC, 30 minutes): 50% | # mice abdominal construction ([4]; 50 mg/kg SC, 120 minutes): 9/10 | % inhibition ([4]; 50 mg/kg SC, 120 minutes): 10% | inhibition of acetylcholine-induced abdominal constriction (statistical significance) ([4]; 50 and 25 mg/kg SC and 25 and 12.5 mg/kg PO, 30 minutes): statistically significant inhibition | inhibition of acetylcholine-induced abdominal constriction, dose response (FIG. 3) [4]: statistically significant | antinociceptive activity in the mouse [4]: significant antinociceptive activity | signs of CNS depression or sedation ([4]; mice, during the experimental period): did not show signs of CNS depression or sedation | statistically significant activity compared to Fmoc-Ala ([4]; oral administration, any dose, 120 minutes): did not show statistically significant activity | inhibition of acetylcholine-induced abdominal constriction after oral administration (FIG. 4) ([4]; orally, 25 and 12.5 mg/kg after 30 minutes and 50 mg/kg after 120 minutes): statistically significant inhibition

Fms-doxorubicin
IC50 (F10.9 melanoma cell line): 90 nM | cleavage in the cell medium (HPLC analysis) [5]: full recovery of the native doxorubicin

gentamicin [native gentamicin]
concentration inhibiting half-maximally E. coli replication [6]: 0.1 µg/mL | IC50 ([6]; read-out: concentration inhibiting half-maximally E. coli replication): 220 ± 20 nM

Tyr-Gly-Gly-Phe-Met [Met-Enk, reference compound]
# mice abdominal construction ([4]; 50 mg/kg PO, 30 minutes): 9/10 | % inhibition ([4]; 50 mg/kg PO, 30 minutes): 10% | # mice abdominal construction ([4]; 50 mg/kg PO, 120 minutes): 9/10 | % inhibition ([4]; 50 mg/kg PO, 120 minutes): 10% | # mice abdominal construction ([4]; 50 mg/kg SC, 30 minutes): 8/10 | % inhibition ([4]; 50 mg/kg SC, 30 minutes): 20% | # mice abdominal construction ([4]; 50 mg/kg SC, 120 minutes): 10/10 | inhibition of acetylcholine-induced abdominal constriction, dose response (FIG. 3) [4]: not significantly active | activity after SC or PO administration [4]: not active | antinociceptive activity in the mouse [4]: neither Met-enkephalin nor Fmoc-Ala is active
